Laboratory results reported in ChEMBL document CHEMBL3044918, “Ability of vitamins to induce downy mildew disease resistance and growth promotion in pearl millet” (2007).
The source made the active and inactive calls. The rule behind the calls is not given here.

What was measured:
Cenchrus americanus [1] = test: (§1) Induction of systemic acquired resistance against Sclerospora graminicola in Cenchrus americanus cultivar 7042S assessed as protection against downy mildew disease at 20 mM applied to seeds prior to sowing and to foliar of 7 day old seedling inoculated on day 2 measured on day 30 in field conditions (reference value: 3%); assay type: functional
Cenchrus americanus [2] = test: Induction of systemic acquired resistance against Sclerospora graminicola in Cenchrus americanus cultivar 7042S assessed as protection against downy mildew disease at 20 mM applied to foliar of 7 day old seedling inoculated on day 2 measured on day 30 in field conditions (reference value: 2%); assay type: functional
Cenchrus americanus [3] = test: Effect on growth parameter in disease-susceptible Cenchrus americanus cultivar 7042S assessed as yield at 20 mM applied to seeds prior to sowing (reference value: 1209 +/- 9 kg/ha); assay type: functional
Cenchrus americanus [4] = test: Effect on growth parameter in disease-susceptible Cenchrus americanus cultivar 7042S assessed as girth of ear at 20 mM applied to seeds prior to sowing measured after 60 days (reference value: 3.6 +/- 0.9 cm); assay type: functional
Cenchrus americanus [5] = test: Effect on growth parameter in disease-susceptible Cenchrus americanus cultivar 7042S assessed as length of ear at 20 mM applied to seeds prior to sowing measured after 60 days (reference value: 9.4 +/- 0.8 cm); assay type: functional
Cenchrus americanus [6] = test: Effect on growth parameter in disease-susceptible Cenchrus americanus cultivar 7042S assessed as increase in prodcutive tillers at 20 mM applied to seeds prior to sowing measured after 60 days relative to control; assay type: functional, organism-based
Cenchrus americanus [7] = test: Stimulation of flowering in downy mildew disease-susceptible Cenchrus americanus cultivar 7042S assessed as days required for 50% flowering at 20 mM applied to seeds prior to sowing measured after 60 days (reference value: 44 +/- 0.7 days ); assay type: functional
Cenchrus americanus [8] = test: Stimulation of growth in downy mildew disease-susceptible Cenchrus americanus cultivar 7042S assessed as plant height at 20 mM applied to seeds prior to sowing measured after 60 days (reference value: 58.5 cm); assay type: functional
Cenchrus americanus [9] = test: (§2) Induction of systemic acquired resistance against Sclerospora graminicola in Cenchrus americanus cultivar 7042S assessed as protection against downy mildew disease at 20 mM applied to seeds prior to sowing followed by inoculation on 2 day old seedling and challenge-inoculation to the inflorescence primordia at boot leaf stage measured on day 60 in green house condition relative to control; assay type: functional
Cenchrus americanus [10] = test: as §2, with “nodal tiller” for “inflorescence primordia at boot leaf stage”; assay type: functional
Cenchrus americanus [11] = test: (§3) Induction of systemic acquired resistance against Sclerospora graminicola in Cenchrus americanus cultivar 7042S assessed as protection against downy mildew disease at 20 mM applied to seeds prior to sowing followed by inoculation at cleoptile stage at day 6 post seedling emergence measured on day 30 in green house conditions relative to control; assay type: functional
Cenchrus americanus [12] = test: Effect on growth parameter in disease-susceptible Cenchrus americanus cultivar 7042S assessed as weight of 1000 seeds at 20 mM applied to seeds prior to sowing (reference value: 7.4 +/- 1.4 g); assay type: functional
Cenchrus americanus [13] = test: as §1, with “followed by inoculation on 2” for “and to foliar of 7”, “seedling” for “seedling inoculated on day 2”; assay type: functional
Cenchrus americanus [14] = test: as §3, with “5” for “6”; assay type: functional
Cenchrus americanus [15] = test: as §3, with “4” for “6”; assay type: functional
Cenchrus americanus [16] = test: as §3, with “3” for “6”; assay type: functional
Cenchrus americanus [17] = test: as §3, with “2” for “6”; assay type: functional
Cenchrus americanus [18] = test: as §3, with “1” for “6”; assay type: functional
Cenchrus americanus [19] = test: as §1, with “followed by inoculation on 2” for “and to foliar of 7”, “seedling” for “seedling inoculated on day 2”, “green house” for “field”; assay type: functional
Cenchrus americanus [20] = test: Stimulation of seed germination in Cenchrus americanus cultivar 7042S at 20 mM incubated for 6 hr followed by sowing measured at 7-day old seedling stage (reference value: 88%); assay type: functional
Cenchrus americanus [21] = test: Increase in seed vigor in Cenchrus americanus cultivar 7042S at 20 mM incubated for 6 hr followed by sowing measured at 7-day old seedling stage relative to control; assay type: functional, organism-based
Cenchrus americanus [22] = test: Induction of systemic acquired resistance against Sclerospora graminicola in Cenchrus americanus cultivar 7042S assessed as protection against downy mildew disease at 6 g/kg applied to foliar of 7 day old seedling inoculated on day 2 measured on day 30 in field conditions (reference value: 2%); assay type: functional
Cenchrus americanus [23] = test: as §1, with “6 g/kg” for “20 mM”; assay type: functional
Cenchrus americanus [24] = test: as §1, with “6 g/kg” for “20 mM”, “followed by inoculation on 2” for “and to foliar of 7”, “seedling” for “seedling inoculated on day 2”; assay type: functional
Cenchrus americanus [25] = test: Induction of systemic acquired resistance against Sclerospora graminicola in Cenchrus americanus cultivar 7042S assessed as protection against downy mildew disease at 6 g/kg applied to seeds prior to sowing followed by inoculation on 2 day old seedling measured on day 30 in green house condition(reference value: 3%); assay type: functional
Cenchrus americanus [26] = test: Effect on seed vigor in Cenchrus americanus cultivar 7042S assessed as vigor index at 20 mM incubated for 6 hr followed by sowing measured at 7-day old seedling stage (reference value: 990); assay type: functional

| SMILES | Activity (Cenchrus americanus [1]) | Activity (Cenchrus americanus [2]) | Activity (Cenchrus americanus [3]) | Activity (Cenchrus americanus [4]) | Activity (Cenchrus americanus [5]) | Activity (Cenchrus americanus [6]) | Time (Cenchrus americanus [7]) | Activity (Cenchrus americanus [8]) | Activity (Cenchrus americanus [9]) | Activity (Cenchrus americanus [10]) | Activity (Cenchrus americanus [11]) | Activity (Cenchrus americanus [12]) | Activity (Cenchrus americanus [13]) | Activity (Cenchrus americanus [14]) | Activity (Cenchrus americanus [15]) | Activity (Cenchrus americanus [16]) | Activity (Cenchrus americanus [17]) | Activity (Cenchrus americanus [18]) | Activity (Cenchrus americanus [19]) | Activity (Cenchrus americanus [20]) | further results |
| --- | --- | --- | --- | --- | --- | --- | --- | --- | --- | --- | --- | --- | --- | --- | --- | --- | --- | --- | --- | --- | --- |
| Cc1cc2nc3c(=O)[nH]c(=O)nc-3n(C[C@H](O)[C@H](O)[C@H](O)CO)c2cc1C [RIBOFLAVIN] | 67% | 61% | 1281 kg/ha | 3.9 cm | 11.4 cm | Active | 43 days | 62 cm | 69% | 64% | 63% | 9.5 g | 61% | 63% | 63% | 55% | 50% | 43% | 62% | 92% |  |
| O=C(O)CCCC[C@@H]1SC[C@@H]2NC(=O)N[C@@H]21 [BIOTIN] |  |  |  |  |  |  |  |  |  |  |  |  |  |  |  |  |  |  | 51% | 91% | Activity (Cenchrus americanus [21]): Active |
| COCC(=O)N(c1c(C)cccc1C)C(C)C(=O)OC (stereo not given) [METALAXYL] |  |  |  |  |  |  |  |  |  |  |  |  |  |  |  |  |  |  |  |  | Activity (Cenchrus americanus [22]): 91%; Activity (Cenchrus americanus [23]): 92%; Activity (Cenchrus americanus [24]): 92%; Activity (Cenchrus americanus [25]): 92% |
| Nc1nc(=O)c2nc(CNc3ccc(C(=O)N[C@@H](CCC(=O)O)C(=O)O)cc3)cnc2[nH]1 [FOLIC ACID] |  |  |  |  |  |  |  |  |  |  |  |  |  |  |  |  |  |  | 42% | 90% | Activity (Cenchrus americanus [21]): Active |
| CC1(S(=O)(=O)[O-])CC(=O)c2ccccc2C1=O.[Na+] (stereo not given) [MENADIONE SODIUM BISULPHITE] | 72% | 66% | 1328 kg/ha | 4.1 cm | 12 cm | Active | 40 days | 68 cm | 79% | 77% | 74% | 11.74 g | 68% | 74% | 73% | 65% | 51% | 46% | 73% | 93% | Vigour_index (Cenchrus americanus [26]): 1312 |
| Cc1ncc(CO)c(CO)c1O [PYRIDOXINE] |  |  |  |  |  |  |  |  |  |  |  |  |  |  |  |  |  |  | 44% | 91% | Activity (Cenchrus americanus [21]): Active |
| O=C(O)c1cccnc1 [NIACIN] | 65% | 60% | 1306 kg/ha | 4 cm | 11.8 cm | Active | 42 days | 66 cm | 71% | 69% | 63% | 10.97 g | 63% | 63% | 63% | 56% | 51% | 45% | 63% | 92% | Vigour_index (Cenchrus americanus [26]): 1217 |
